Source: PubChem BioAssay AID248 (DTP/NCI, 2004)
Where “and” joins values, the source holds several entries; their conditions need not be identical. Identical values can stand only once. Inconclusive results and toxic doses are left out. Rule as the data show it: active = T/C of 150% or more; inactive = T/C below 125%.

Test system: L1210 leukemia ip in BDF1 mice, survival T/C
Assay: NCI In Vivo Anticancer Drug Screen. Data for tumor model L1210 Leukemia (intraperitoneal) in B6D2F1 (BDF1) mice
Settings: endpoint: mean survival time, higher = longer survival
How it was run: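 Transplanted-tumor mice were given test agent; controls received vehicle only. Survival readings from the two groups were divided (treated over control).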

[1] = dose: 100.0 mg/kg/injection, schedule: Q04DX003 (ip), vehicle: saline with Tween-80
[2] = dose: 200.0 mg/kg/injection, schedule: Q04DX003 (ip), vehicle: saline with Tween-80
[3] = dose: 400.0 mg/kg/injection, schedule: Q04DX003 (ip), vehicle: saline with Tween-80
[4] = dose: 100.0 mg/kg/injection, schedule: Q01DX009 (ip), vehicle: saline
[5] = dose: 100.0 mg/kg/injection, schedule: Q04DX003 (ip), vehicle: saline
[6] = dose: 200.0 mg/kg/injection, schedule: Q01DX009 (ip), vehicle: saline
[7] = dose: 200.0 mg/kg/injection, schedule: Q04DX003 (ip), vehicle: saline
[8] = dose: 400.0 mg/kg/injection, schedule: Q01DX009 (ip), vehicle: saline
[9] = dose: 400.0 mg/kg/injection, schedule: Q04DX003 (ip), vehicle: saline
[10] = dose: 100.0 mg/kg/injection, schedule: Q01DX009 (ip), vehicle: Klucel (hydroxypropylcellulose) (HPC)
[11] = dose: 100.0 mg/kg/injection, schedule: Q04DX003 (ip), vehicle: Klucel (hydroxypropylcellulose) (HPC)
[12] = dose: 200.0 mg/kg/injection, schedule: Q01DX009 (ip), vehicle: Klucel (hydroxypropylcellulose) (HPC)
[13] = dose: 200.0 mg/kg/injection, schedule: Q04DX003 (ip), vehicle: Klucel (hydroxypropylcellulose) (HPC)
[14] = dose: 400.0 mg/kg/injection, schedule: Q01DX009 (ip), vehicle: Klucel (hydroxypropylcellulose) (HPC)
[15] = dose: 400.0 mg/kg/injection, schedule: Q04DX003 (ip), vehicle: Klucel (hydroxypropylcellulose) (HPC)
[16] = dose: 50.0 mg/kg/injection, schedule: Q04DX003 (ip), vehicle: saline with Tween-80
[17] = dose: 100.0 mg/kg/injection, schedule: Q01DX009 (ip), vehicle: saline with Tween-80
[18] = dose: 400.0 mg/kg/injection, schedule: Q01DX009 (ip), vehicle: saline with Tween-80

Measured: T/C

[C-]#[N+]C(C)(C)CC(C)(C)C
inactive: dose: 18.75 mg/kg/injection, schedule: Q04DX003 (ip), vehicle: acetone 103 % of control | dose: 33.0 mg/kg/injection, schedule: Q01DX001 (ip), vehicle: Klucel (hydroxypropylcellulose) (HPC) 110 % of control | dose: 33.0 mg/kg/injection, schedule: Q01DX001 (ip), vehicle: saline 104 % of control | dose: 37.5 mg/kg/injection, schedule: Q04DX003 (ip), vehicle: acetone 109 % of control | dose: 50.0 mg/kg/injection, schedule: Q01DX001 (ip), vehicle: Klucel (hydroxypropylcellulose) (HPC) 105 % of control | dose: 50.0 mg/kg/injection, schedule: Q01DX001 (ip), vehicle: saline 106 % of control | dose: 75.0 mg/kg/injection, schedule: Q01DX001 (ip), vehicle: Klucel (hydroxypropylcellulose) (HPC) 96 % of control | dose: 75.0 mg/kg/injection, schedule: Q01DX001 (ip), vehicle: saline 104 % of control | dose: 75.0 mg/kg/injection, schedule: Q04DX003 (ip), vehicle: acetone 107 % of control | dose: 110.0 mg/kg/injection, schedule: Q04DX003 (ip), vehicle: saline 94 % of control | dose: 170.0 mg/kg/injection, schedule: Q04DX003 (ip), vehicle: saline 106 % of control

Cc1cnc(Cl)nc1N1CC1
inactive: dose: 1.0 mg/kg/injection, schedule: Q01DX Z (ip), vehicle: methylcellulose (MC) 91 % of control

CCOC(=O)c1ccc(N=NNc2ccc(C(=O)OCC)cc2)cc1
inactive: dose: 10.0 mg/kg/injection, schedule: Q01DX Z (ip), vehicle: other 95 % of control | dose: 30.0 mg/kg/injection, schedule: Q01DX Z (ip), vehicle: other 87 % of control

COC1OC(CBr)C(OC(C)=O)C(OC(C)=O)C1OC(C)=O (stereo not drawn)
inactive: [1] 93 % of control | [2] 98 % of control | [3] 98 % of control

CNC(=O)c1cc(NC(=O)Nc2cccc(C3=NCCN3)c2)cc(NC(=O)Nc2cccc(C3=NCCN3)c2)c1
inactive: dose: 15.0 mg/kg/injection, schedule: Q01DX Z (ip), vehicle: saline 114 % of control | dose: 30.0 mg/kg/injection, schedule: Q01DX Z (oral), vehicle: saline 103 % of control | dose: 60.0 mg/kg/injection, schedule: Q01DX Z (ip), vehicle: saline 120 % of control | dose: 60.0 mg/kg/injection, schedule: Q01DX Z (oral), vehicle: saline 119 % of control | dose: 120.0 mg/kg/injection, schedule: Q01DX Z (oral), vehicle: saline 101 % of control | dose: 240.0 mg/kg/injection, schedule: Q01DX Z (oral), vehicle: saline 95 % of control

O=C(O)CNCc1ccc(F)cc1
inactive: [4] 107 % of control | [5] 109 % of control | [6] 108 % of control | [7] 105 % of control | [8] 107 % of control | [9] 102 % of control

SC1(SC2(S)CCCCC2)CCCCC1
inactive: [1] 97 % of control | [2] 101 % of control | [3] 113 % of control

Cc1cc(C)c(S(=O)(=O)c2c(C)cc(C)c([N+](=O)[O-])c2C)c(C)c1[N+](=O)[O-]
inactive: [10] 98 % of control | [11] 92 % of control | [12] 88 % of control | [13] 93 % of control | [14] 88 % of control | [15] 90 % of control

[Cl][Pt+2][Cl].[NH-]C(CCCN)C(=O)O.[NH-]C(CCCN)C(=O)O (stereo not drawn)
inactive: [16] 103 % of control | [1] 104 % of control and 115 % of control | [2] 97 % of control and 102 % of control

C(=N\Nc1nn[nH]n1)/c1ccncc1
inactive: [17] 98 % of control | [1] 95 % of control | dose: 132.0 mg/kg/injection, schedule: Q01DX009 (ip), vehicle: saline with Tween-80 102 % of control | [2] 96 % of control | dose: 300.0 mg/kg/injection, schedule: Q01DX009 (ip), vehicle: saline with Tween-80 97 % of control | [18] 100 % of control | [3] 90 % of control

CCOC(=O)c1[nH]c(-c2ccc(OC)cc2)c(C(=O)OCC)c1-c1ccccc1
inactive: dose: 100.0 mg/kg/injection, schedule: Q01DX001 (ip), vehicle: Klucel (hydroxypropylcellulose) (HPC) 88 % of control | dose: 200.0 mg/kg/injection, schedule: Q01DX001 (ip), vehicle: Klucel (hydroxypropylcellulose) (HPC) 108 % of control | dose: 400.0 mg/kg/injection, schedule: Q01DX001 (ip), vehicle: Klucel (hydroxypropylcellulose) (HPC) 114 % of control

Cc1cccc(C)c1NC(=O)C(Cl)c1ccccc1 (stereo not drawn)
inactive: [10] 107 % of control | [11] 98 % of control | [12] 91 % of control | [13] 98 % of control | [14] 98 % of control | [15] 98 % of control

CC1=NN(c2ccccc2)C(=O)C1N=Nc1ccc(S(N)(=O)=O)cc1 (stereo not drawn)
inactive: dose: 100.0 mg/kg/injection, schedule: Q01DX001 (ip), vehicle: carboxymethylcellulose (CMC) 95 % of control | dose: 200.0 mg/kg/injection, schedule: Q01DX001 (ip), vehicle: carboxymethylcellulose (CMC) 93 % of control | dose: 400.0 mg/kg/injection, schedule: Q01DX001 (ip), vehicle: carboxymethylcellulose (CMC) 93 % of control

COc1cc(C(N)=O)cc(OC)c1O
inactive: [4] 92 % of control | [5] 97 % of control | [6] 103 % of control | [7] 108 % of control | [8] 113 % of control | [9] 100 % of control

C(=C\c1nc2ccccc2nc1/C=C/c1ccc2c(c1)OCO2)/c1ccc2c(c1)OCO2
inactive: dose: 12.5 mg/kg/injection, schedule: Q01DX009 (ip), vehicle: Klucel (hydroxypropylcellulose) (HPC) 95 % of control | dose: 25.0 mg/kg/injection, schedule: Q01DX009 (ip), vehicle: Klucel (hydroxypropylcellulose) (HPC) 92 % of control | dose: 50.0 mg/kg/injection, schedule: Q01DX009 (ip), vehicle: Klucel (hydroxypropylcellulose) (HPC) 100 % of control | [11] 102 % of control | [13] 96 % of control | [14] 86 % of control | [15] 95 % of control

CC(=O)OCCC(CCCl)OC(C)=O (stereo not drawn)
inactive: dose: 100.0 mg/kg/injection, schedule: Q04DX002 (ip), vehicle: saline with Tween-80 111 % of control | dose: 200.0 mg/kg/injection, schedule: Q04DX002 (ip), vehicle: saline with Tween-80 104 % of control | dose: 400.0 mg/kg/injection, schedule: Q04DX002 (ip), vehicle: saline with Tween-80 93 % of control

CN(C)N=Nc1ccc(C#N)cc1
inactive: dose: 50.0 mg/kg/injection, schedule: Q01DX001 (ip), vehicle: saline with Tween-80 105 % of control | dose: 50.0 mg/kg/injection, schedule: Q01DX009 (ip), vehicle: saline with Tween-80 96 % of control | [16] 101 % of control | dose: 100.0 mg/kg/injection, schedule: Q01DX001 (ip), vehicle: saline with Tween-80 106 % of control | [17] 91 % of control | [1] 105 % of control | dose: 200.0 mg/kg/injection, schedule: Q01DX001 (ip), vehicle: saline with Tween-80 118 % of control | dose: 200.0 mg/kg/injection, schedule: Q01DX009 (ip), vehicle: saline with Tween-80 100 % of control | [2] 97 % of control | dose: 400.0 mg/kg/injection, schedule: Q01DX001 (ip), vehicle: saline with Tween-80 122 % of control | [18] 102 % of control | [3] 108 % of control
